Experimental data from patent US10080748B2, “Use of flap inhibitors to reduce neuroinflammation mediated injury in the central nervous system” (Bioscience Pharma Partners, LLC, priority 2014, dated 2018).

Tests used:
[1] = test system: rats subjected to FPI (TBI model); experiment: Volume of cell death 72 hours after TBI (rat FPI); type: in vivo; conditions: 6 mg/kg IV 30 minutes prior to TBI; measured 72 hours later
Method: Craniotomy and lateral fluid percussion injury (FPI) were performed using a previously validated and published procedure. Farias S, et al. J. Neurotraum, 26, 1977-1986, 2009; Frey L. C. et al. J. Neurosci. Methods 177, 267-272, 2009. Throughout the specification animals subjected to this protocol are referred to as having a TBI since this treatment protocol is a TBI model. Briefly, rats were anesthetized with 3-5% isoflurane, isosol, VEDCO Inc., St. Joseph, Mo., via nose cone and mounted in a stereotaxic head frame. A 3 millimeter (mm) craniotomy was created and centered at 3 mm caudal to bregma and 3.5 mm left of the sagittal suture, keeping the exposed dura intact. One steel support screw was embedded in the skull on the contralateral side. A Luer-Lock hub with an inside diameter of 3.5 mm was centered over the craniotomy and bonded to the skull with cyanoacrylate adhesive and capped. Dental acrylic, Snap, Parka, Inc., Edgewood, N.J., was poured around the huh and screw. After the acrylic hardened antibiotic ointment was applied around the cap and the animals were returned to their cages. […] Moistened food pellets were provided after injury, and all animals were monitored daily for well-being and weight changes. […]
Rats were administered a single-dose of the FLAP inhibitor MK-886, 6 mg/kg IV by tail vein, 30 minutes prior to TBI. […] Results are expressed as the average±SEM. […]

[2] = test system: rats subjected to FPI (TBI model); experiment: Gd-enhanced T1-weighted MRI, BBB disruption 72 hours after TBI (rat FPI); type: in vivo
Method: Craniotomy and lateral fluid percussion injury (FPI) were performed using a previously validated and published procedure. Farias S, et al. J. Neurotraum, 26, 1977-1986, 2009; Frey L. C. et al. J. Neurosci. Methods 177, 267-272, 2009. Throughout the specification animals subjected to this protocol are referred to as having a TBI since this treatment protocol is a TBI model. Briefly, rats were anesthetized with 3-5% isoflurane, isosol, VEDCO Inc., St. Joseph, Mo., via nose cone and mounted in a stereotaxic head frame. A 3 millimeter (mm) craniotomy was created and centered at 3 mm caudal to bregma and 3.5 mm left of the sagittal suture, keeping the exposed dura intact. One steel support screw was embedded in the skull on the contralateral side. A Luer-Lock hub with an inside diameter of 3.5 mm was centered over the craniotomy and bonded to the skull with cyanoacrylate adhesive and capped. Dental acrylic, Snap, Parka, Inc., Edgewood, N.J., was poured around the huh and screw. After the acrylic hardened antibiotic ointment was applied around the cap and the animals were returned to their cages. The next day, approximately 15-20 hours later, animals were anesthetized with isoflurane in an induction chamber, immediately connected to the FPI apparatus, and received a 20 millisecond (ms) pulse of pressurized sterile saline at 2.7 atmospheres (atm) of pressure to simulate a moderate severity impact on the intact dural surface through the craniotomy before awakening from anesthesia. […] All animals received a subcutaneous injection of the analgesic, buprenorphine, 0.05 milligram/kilogram (mg/kg) Buprenex, prior to craniotomy, and subsequent injections every 12 hours for two days. Moistened food pellets were provided after injury, and all animals were monitored daily for well-being and weight changes. […]
The effect of leukotrienes on TBI-related BBB disruption was assessed using Gd-enhanced T1-weighted MRI 72 hours after TBI in rats. […]

[3] = test system: rats subjected to FPI (TBI model); experiment: Rotarod vestibulomotor performance after TBI (rat FPI); type: in vivo; conditions: administered 15 minutes after TBI
Method: Craniotomy and lateral fluid percussion injury (FPI) were performed using a previously validated and published procedure. Farias S, et al. J. Neurotraum, 26, 1977-1986, 2009; Frey L. C. et al. J. Neurosci. Methods 177, 267-272, 2009. Throughout the specification animals subjected to this protocol are referred to as having a TBI since this treatment protocol is a TBI model. Briefly, rats were anesthetized with 3-5% isoflurane, isosol, VEDCO Inc., St. Joseph, Mo., via nose cone and mounted in a stereotaxic head frame. A 3 millimeter (mm) craniotomy was created and centered at 3 mm caudal to bregma and 3.5 mm left of the sagittal suture, keeping the exposed dura intact. One steel support screw was embedded in the skull on the contralateral side. A Luer-Lock hub with an inside diameter of 3.5 mm was centered over the craniotomy and bonded to the skull with cyanoacrylate adhesive and capped. Dental acrylic, Snap, Parka, Inc., Edgewood, N.J., was poured around the huh and screw. […] Moistened food pellets were provided after injury, and all animals were monitored daily for well-being and weight changes.
For rotarod testing, the rod's rotation was programmed to accelerate from 0 to 50 rpm over the course of 300 seconds. Four trials were run at each selected time point after injury and the individual trial and mean times for each animal are recorded. […]

[4] = test system: human whole blood; experiment: Human whole blood bioassay of LTB4, 5-HETE and AA production; type: cell-based; conditions: human whole blood; data not shown
Text: The results are for the effects of these two FLAP inhibitors on LTB4 production and 5-HETE production. It is known that indole-acetic acid FLAP inhibitors like MK-886, MK-591 display high plasma protein binding. Thus, the potencies of these FLAP inhibitors for blocking leukotrienes in vivo are about 100 fold higher than the affinity of the inhibitors for FLAP binding. The inventors developed a bioassay that closely predicts the in vivo potency of FLAP inhibitors using human whole blood. Briefly, whole blood is incubated with a calcium ionophore like […] or zymosan in the absence or presence of increasing concentrations of a FLAP inhibitor. After incubation at 37° C. for 30 minutes, the samples are centrifuged and the plasma supernatant is subjected to reverse phase liquid chromatography coupled to tandem mass spectrometry to quantify levels of LTB4, 5-HETE, and AA production. Drug IC50 values are determined by non-linear regression analysis (GraphPad Prism).). […] As FLAP inhibitors are poorly water soluble drugs, the inventors have shown that such hydrophobic drugs can be formulated in a carrier comprising one or more vegetable oils, such as olive oil, and phosphatidylserine that are found on the Generally Accepted as Safe (GRAS) list and that such drugs can then be rapidly delivered and targeted to the brain and upper spinal cord. Hanson L R, et al, Drug Delivery 19(3):149-54, 2012.

[5] = cited from earlier work

## CC(C)c1ccc2c(c1)c(SC(C)(C)C)c(CC(C)(C)C(=O)O)n2Cc1ccc(Cl)cc1 [MK-886, 1-[(4-Chlorophenyl)methyl]-3-[(1,1-dimethylethyl)thio]-α,α-dimethyl-5-(1-methylethyl)-1H-Indole-2-propanoic acid]
[1]
  cell death induced by TBI: significant reductions in cell death
[2]; 15 min post-injury
  Gd extravasation: no effect
[2]; 30 min pre-injury
  Gd extravasation: no effect
[2]; 60 min post-injury
  Gd extravasation: no effect
[3]
  vestibulomotor performance on the rotarod compared to vehicle: improved vestibulomotor performance
[4]
  AA production: neither of the FLAP inhibitors effected AA production
[5]
  plasma protein binding: high
